Experimental data taken from patent US20240217936A1, “5-BENZY[…] AND PREPARATION METHOD THEREFOR AND USE THEREOF” (WEST CHINA HOSPITAL, SICHUAN UNIVERSITY, priority 2021, published 2024).
Where a name gives a salt, the structure may show the parent alone.

Columns and labels:
Male SD rats [1] = assay: Sedative and hypnotic effects after oral administration (gavage, righting reflex); assay type: in vivo, rat; conditions: gavage, 0.16 μmoL/kg; for Onset time: disappearance of righting reflex; for Duration: until recovery of righting reflex
Method: Each test drug was administered by gavage, at a dosage of 0.16 μmoL/kg for each drug. After gavage, the disappearance of the righting reflex was used as a sign of the hypnotic effect induced by the drug, and the recovery of the righting reflex was used as a sign of drug failure. The onset time and duration of the drug were observed.

[2] = Degradation of prodrug in rat plasma (release of dexmedetomidine, HPLC); assay type: in vitro ADME; conditions: 37° C.
Method: The test prodrug was formulated as a 1 mg/mL of physiological saline solution, and then 100 μL of the prodrug solution was added to 900 μL of rat plasma. The test solution was vortexed for 30 s before incubation at 37° C. 50 μL of drug-containing plasma was collected at 0.5 min, 1 min, 2 min, 3 min, 5 min, 10 min, 15 min, 20 min, 30 min, and 60 min, respectively, to which was immediately added 150 μL of acetonitrile to terminate the enzymatic reaction, followed by adding the solution of internal standard telmisartan in methanol (30 μL, 20 μg/mL). Then, the resultant solution was centrifuged at 20000 rpm and 4° C. for 10 min. 100 μL of the supernatant was injected for detection by HPLC, and the concentration of dexmedetomidine was determined by an internal standard method. The degradation rate of the prodrug was calculated based on the concentration of dexmedetomidine. The chromatographic conditions are: Swell XDB C18 column (150 mm×4.6 mm, 5 μm); column temperature 30° C.; using gradient elution (see Table 1), mobile phase A: methanol, mobile phase B: 0.1% trifluoroacetic acid in water, and mobile phase C: acetonitrile; detection wavelength: 220 nm; flow rate: 1.0 mL/min; injection volume: 30 μL; retention time: 4.7 minutes for dexmedetomidine and 6.7 minutes for internal standard telmisartan. The linear range of dexmedetomidine: 2.5-100 μg/mL. Instruments: Waters 2695 high-performance liquid chromatograph, Waters 2996 photodiode array detector.

Male SD rats [3] = assay: Hypnotic effect after tail vein injection (loss of righting reflex); assay type: in vivo, rat; conditions: for ED50: Rattus norvegicus, 50% of the dose for the disappearance of righting reflex in rats, tail vein injection; for Onset time: tail vein injection of 2× ED50, loss of righting reflex; for Onset time / Duration: rats; for Duration: tail vein injection of 2× ED50, until recovery of righting reflex
Method: Male SD rats, weighing 250-300 g, were randomly divided into groups, with 10 rats in each group. […] The onset times and the duration of hypnosis were recorded.

Male SD rats [4] = assay: Blood pressure change after tail vein injection (mean arterial pressure); conditions: dosage 2× ED50, injection within 15 seconds, 60 min recording, rats under isoflurane
Method: Male SD rats weighing 250-300 g were randomly divided into groups, with 10 rats in each group. General anesthesia was maintained by inhaling isoflurane. By intubating via femoral artery, blood pressure was monitored using the BL-420N biological signal collection and analysis system. minutes after blood pressure stabilization, the baseline mean arterial pressure (MAP0) was measured. Subsequently, the physiological saline solution of each test drug was injected via the tail vein (the dosage of each drug was the same as that in Experiment example 2, with a unified injection […] volume of 1 mL). […] All prodrug molecules were injected within 15 seconds. After injection of each drug, the change in blood pressure was continuously recorded for 60 min. […] The difference MAPΔ+ between the baseline mean arterial pressure (MAP0) and the highest mean arterial pressure (MAPmax) during the 60 min measurement time was calculated; the difference MAPΔ− between the baseline mean arterial pressure (MAP0) and the lowest mean arterial pressure (MAPmin) during the 60 min measurement time was also obtained; both of the difference values were used to calculate the maximum increase rate of mean arterial pressure +Δ%=MAPΔ+/MAP0*100% and the maximum decrease rate of mean arterial pressure −Δ%=MAPΔ−/MAP0*100%, respectively. The maximum increase rate of mean arterial pressure +Δ% and the maximum decrease rate −Δ% reflect the degree of blood pressure change that the body experienced after administration. The larger the value, the greater the blood pressure change that the body experienced.

Work on `Cc1cccc([C@H](C)c2cn(COC(=O)OC(C)C)cn2)c1C` [Compound 7] yielded an Onset time (Male SD rats [1]) of 9 ± 4 min and a Duration (Male SD rats [1]) of 22 ± 8 min.
Compound `CCC(=O)OCn1cnc([C@@H](C)c2cccc(C)c2C)c1` [Compound 10] has an Onset time (Male SD rats [1]) of 13 ± 6 min and a Duration (Male SD rats [1]) of 15 ± 7 min.
In the case of `Cc1cccc([C@H](C)c2cn(COP(=O)(OC(C)(C)C)OC(C)(C)C)cn2)c1C` [Compound 12, (S)-(4-(1-(2,3-dimethylphenyl)ethyl)-1H-imidazo-1-yl)methyl di-tert-butyl phosphate], the Onset time (Male SD rats [1]) is reported as 16 ± 7 min and the Duration (Male SD rats [1]) is reported as 11 ± 4 min.
Compound `COC(=O)OCn1cnc([C@@H](C)c2cccc(C)c2C)c1` [Compound 13] has an Onset time (Male SD rats [1]) of 11 ± 5 min and a Duration (Male SD rats [1]) of 21 ± 9 min.
With `CC(=O)OC(C)n1cnc([C@@H](C)c2cccc(C)c2C)c1` (stereo partly shown) [Compound 17-HCl] the “Degradation rate of prodrug %” value ([2]; 0.5 min) was 12%, the “Degradation rate of prodrug %” value ([2]; 1 min) was 16% and the “Degradation rate of prodrug %” value ([2]; 2 min) was 19%. For the same compound, the “Degradation rate of prodrug %” value ([2]; 3 min) was 22%, the “Degradation rate of prodrug %” value ([2]; 5 min) was 29% and the “Degradation rate of prodrug %” value ([2]; 10 min) was 39%. For the same compound, the “Degradation rate of prodrug %” value ([2]; 15 min) was 48%, the “Degradation rate of prodrug %” value ([2]; 20 min) was 53% and the “Degradation rate of prodrug %” value ([2]; 30 min) was 58%. The “Degradation rate of prodrug %” value ([2]; 60 min) was 67%, the ED50 (Male SD rats [3]) was 0.029 mg/kg and the Onset time (Male SD rats [3]) was 1.8 ± 0.7 min. For the same compound, the Duration (Male SD rats [3]) was 42 ± 12 min, the “+Δ % (The maximum increase rate of blood pressure)” value (Male SD rats [4]) was “*15 ± 4%” and the “−Δ % (The maximum decrease rate of blood pressure)” value (Male SD rats [4]) was 35 ± 6%.
With `CC(=O)OC(C)n1cnc([C@@H](C)c2cccc(C)c2C)c1` (stereo partly shown) [Compound 17] the Onset time (Male SD rats [1]) was 23 ± 5 min and the Duration (Male SD rats [1]) was 9 ± 4 min.
For `CCC(=O)OC(C)n1cnc([C@@H](C)c2cccc(C)c2C)c1` (stereo partly shown) [Compound 18-HCl], the “Degradation rate of prodrug %” value ([2]; 0.5 min) was 17%, the “Degradation rate of prodrug %” value ([2]; 1 min) was 33% and the “Degradation rate of prodrug %” value ([2]; 2 min) was 42%. The “Degradation rate of prodrug %” value ([2]; 3 min) was 48%, the “Degradation rate of prodrug %” value ([2]; 5 min) was 54% and the “Degradation rate of prodrug %” value ([2]; 10 min) was 59%. For the same compound, the “Degradation rate of prodrug %” value ([2]; 15 min) was 64%, the “Degradation rate of prodrug %” value ([2]; 20 min) was 69% and the “Degradation rate of prodrug %” value ([2]; 30 min) was 72%. The “Degradation rate of prodrug %” value ([2]; 60 min) was 75%, the ED50 (Male SD rats [3]) was 0.036 mg/kg and the Onset time (Male SD rats [3]) was 2.4 ± 0.9 min. For the same compound, the Duration (Male SD rats [3]) was 41 ± 10 min, the “+Δ % (The maximum increase rate of blood pressure)” value (Male SD rats [4]) was 29 ± 12% and the “−Δ % (The maximum decrease rate of blood pressure)” value (Male SD rats [4]) was 34 ± 8%.
In the case of `Cc1cccc([C@H](C)c2cn(COC(=O)OC3CC3)cn2)c1C` [Compound 22-HCl], the “Degradation rate of prodrug %” value ([2]; 0.5 min) is reported as 91%, the “Degradation rate of prodrug %” value ([2]; 1 min) is reported as 97% and the “Degradation rate of prodrug %” value ([2]; 2 min) is reported as 100%. The ED50 (Male SD rats [3]) was 0.024 mg/kg, the Onset time (Male SD rats [3]) was 1.5 ± 0.2 min and the Duration (Male SD rats [3]) was 48 ± 9 min. The “+Δ % (The maximum increase rate of blood pressure)” value (Male SD rats [4]) was 34 ± 7% and the “−Δ % (The maximum decrease rate of blood pressure)” value (Male SD rats [4]) was 39 ± 6%.
For `COC(=O)COC(=O)OCn1cnc([C@@H](C)c2cccc(C)c2C)c1` [Compound 23-HCl], the “Degradation rate of prodrug %” value ([2]; 0.5 min) was 23%, the “Degradation rate of prodrug %” value ([2]; 5 min) was 25% and the “Degradation rate of prodrug %” value ([2]; 10 min) was 27%. For the same compound, the “Degradation rate of prodrug %” value ([2]; 15 min) was 28%, the “Degradation rate of prodrug %” value ([2]; 20 min) was 29% and the “Degradation rate of prodrug %” value ([2]; 30 min) was 31%. The “Degradation rate of prodrug %” value ([2]; 60 min) was 34%, the ED50 (Male SD rats [3]) was 0.051 mg/kg and the Onset time (Male SD rats [3]) was 1.7 ± 0.4 min. For the same compound, the Duration (Male SD rats [3]) was 61 ± 15 min, the “+Δ % (The maximum increase rate of blood pressure)” value (Male SD rats [4]) was 29 ± 7% and the “−Δ % (The maximum decrease rate of blood pressure)” value (Male SD rats [4]) was 35 ± 8%.
Compound `COC(=O)COC(=O)OCn1cnc([C@@H](C)c2cccc(C)c2C)c1` [Compound 23] has an Onset time (Male SD rats [1]) of 28 ± 5 min and a Duration (Male SD rats [1]) of 8 ± 2 min.
For `CCOC(=O)COC(=O)OCn1cnc([C@@H](C)c2cccc(C)c2C)c1` [Compound 24-HCl], the “Degradation rate of prodrug %” value ([2]; 0.5 min) was 18%, the “Degradation rate of prodrug %” value ([2]; 1 min) was 21% and the “Degradation rate of prodrug %” value ([2]; 2 min) was 24%. The “Degradation rate of prodrug %” value ([2]; 3 min) was 27%, the “Degradation rate of prodrug %” value ([2]; 5 min) was 31% and the “Degradation rate of prodrug %” value ([2]; 10 min) was 33%. For the same compound, the “Degradation rate of prodrug %” value ([2]; 15 min) was 36%, the “Degradation rate of prodrug %” value ([2]; 20 min) was 37% and the “Degradation rate of prodrug %” value ([2]; 30 min) was 38%. The “Degradation rate of prodrug %” value ([2]; 60 min) was 41%, the ED50 (Male SD rats [3]) was 0.03 mg/kg and the Onset time (Male SD rats [3]) was 1.3 ± 0.4 min. For the same compound, the Duration (Male SD rats [3]) was 47 ± 7 min and the “+Δ % (The maximum increase rate of blood pressure)” value (Male SD rats [4]) was “*27 ± 12%”.
In the case of `COC(=O)CCC(=O)OCn1cnc([C@@H](C)c2cccc(C)c2C)c1` [Compound 25-HCl], the “Degradation rate of prodrug %” value ([2]; 0.5 min) is reported as 51%, the “Degradation rate of prodrug %” value ([2]; 1 min) is reported as 56% and the “Degradation rate of prodrug %” value ([2]; 2 min) is reported as 59%. For the same compound, the “Degradation rate of prodrug %” value ([2]; 3 min) was 64%, the “Degradation rate of prodrug %” value ([2]; 5 min) was 67% and the “Degradation rate of prodrug %” value ([2]; 10 min) was 68%. The “Degradation rate of prodrug %” value ([2]; 15 min) was 69%, the “Degradation rate of prodrug %” value ([2]; 20 min) was 72% and the “Degradation rate of prodrug %” value ([2]; 30 min) was 76%. For the same compound, the “Degradation rate of prodrug %” value ([2]; 60 min) was 79%, the ED50 (Male SD rats [3]) was 0.041 mg/kg and the Onset time (Male SD rats [3]) was 3.1 ± 0.9 min. For the same compound, the Duration (Male SD rats [3]) was 63 ± 15 min, the “+Δ % (The maximum increase rate of blood pressure)” value (Male SD rats [4]) was 31 ± 14% and the “−Δ % (The maximum decrease rate of blood pressure)” value (Male SD rats [4]) was 37 ± 7%.
With `Cc1cccc([C@H](C)c2cn(COP(=O)(O)O)cn2)c1C` [Compound 26] the “Degradation rate of prodrug %” value ([2]; 0.5 min) was 29%, the “Degradation rate of prodrug %” value ([2]; 1 min) was 31% and the “Degradation rate of prodrug %” value ([2]; 2 min) was 32%. The “Degradation rate of prodrug %” value ([2]; 3 min) was 33%, the “Degradation rate of prodrug %” value ([2]; 5 min) was 34% and the “Degradation rate of prodrug %” value ([2]; 10 min) was 35%. The “Degradation rate of prodrug %” value ([2]; 15 min) was 37%, the “Degradation rate of prodrug %” value ([2]; 20 min) was 38% and the “Degradation rate of prodrug %” value ([2]; 30 min) was 43%. The “Degradation rate of prodrug %” value ([2]; 60 min) was 56%, the ED50 (Male SD rats [3]) was 0.032 mg/kg and the Onset time (Male SD rats [3]) was 1.7 ± 0.3 min. For the same compound, the Duration (Male SD rats [3]) was 46 ± 5 min, the “+Δ % (The maximum increase rate of blood pressure)” value (Male SD rats [4]) was “*15 ± 8%” and the “−Δ % (The maximum decrease rate of blood pressure)” value (Male SD rats [4]) was 36 ± 8%.
In the case of `CCOC(=O)CCC(=O)OCn1cnc([C@@H](C)c2cccc(C)c2C)c1` [Compound 27-HCl], the “Degradation rate of prodrug %” value ([2]; 0.5 min) is reported as 52%, the “Degradation rate of prodrug %” value ([2]; 1 min) is reported as 58% and the “Degradation rate of prodrug %” value ([2]; 2 min) is reported as 66%. For the same compound, the “Degradation rate of prodrug %” value ([2]; 5 min) was 78%, the “Degradation rate of prodrug %” value ([2]; 10 min) was 86% and the “Degradation rate of prodrug %” value ([2]; 15 min) was 97%. For the same compound, the “Degradation rate of prodrug %” value ([2]; 20 min) was 100%, the ED50 (Male SD rats [3]) was 0.019 mg/kg and the Onset time (Male SD rats [3]) was 1.4 ± 0.5 min. For the same compound, the Duration (Male SD rats [3]) was 52 ± 9 min, the “+Δ % (The maximum increase rate of blood pressure)” value (Male SD rats [4]) was “*25 ± 13%” and the “−Δ % (The maximum decrease rate of blood pressure)” value (Male SD rats [4]) was 41 ± 9%.
